Test [1] deals with A431 cells (WT EGFR). As to the kind of experiment: Cell proliferation (CellTiter Glo, 72 hr) in A431 cells. The note with it: Homo sapiens. It is filed as cell-based. The procedure:
(§1) A431 human epidermoid carcinoma, H1975 human NSCLC and HCC827 human NSCLC adenocarcinoma cells were obtained from the American Type Culture Center (Manassas, Va.). A431 cells were grown in DMEM (Invitrogen, Carlsbad, Calif.) supplemented with 10% FBS (HyClone, South Logan, Utah) and 1% Penicillin-Streptomycin (P/S, Lonza, Walkersville, Md.).
(§2) Cells were plated in Growth Media supplemented with 5% FBS and 1% P/S at a density of 3,000 cells per well in 96 well tissue culture plates (Corning). […] Growth inhibition (GI50) values were determined by Graph Pad Prism.
On the technique in general: Cellular ATP, detected with luciferase, serves as a proxy for viable cell number.

Test [2] relates to H1975 cells (EGFR L858R/T790M). Put plainly: Cell proliferation (CellTiter Glo, 72 hr) in H1975 cells. Format: cell-based, human. The note with it: for GI50: Homo sapiens. As for the experimental part:
as §1, §2

Test [3] addresses EGFR double mutation L858R/T790M (H1975 cells) (Homo sapiens (Human), UniProt P00533, L858R/T790M). As to the kind of experiment: Phospho-EGFR signaling (immunoblotting, 1 hr) in H1975 cells. Format: cell-based. The conditions noted are these: signaling EC50 WT (A431) / H1975. The procedure: as §1
(§3) All primary antibodies were obtained from Cell Signaling (Danvers, Mass.) and used at 1:1000. Secondary antibodies were used at 1:10,000. Goat anti-mouse IgG IRDye 800CW antibody was obtained from LiCor Biosciences (Lincoln, Nebr.) and goat anti-rabbit IgG Alexa Fluor 680 was obtained from Invitrogen.
(§4) Cells were grown in 12-well plates (Corning, Coring, N.Y.) to 90% confluence and then incubated in low-serum (0.1% FBS) media for 16-18 hr. […] A431 cells were then stimulated with 50 ng/ml EGF (Peprotech, Rocky Hill, N.J.) for 15 min. After treatment, cell monolayers were washed with cold PBS (Invitrogen) and immediately lysed by scrapping into 60 uL cold Cell Extraction Buffer (Invitrogen) supplemented with Complete Protease inhibitors (Roche, Indianapolis, Ind.) and PhosphoSTOP (Roche) phosphatase inhibitors.
(§5) Phospho-protein signals were quantitated using Odyssey Infrared Imaging (Li-Cor Biosciences).
(§6) To assess phosphor-EGFR signaling, blots were probed with rabbit anti-Phospho-EGFR (Y1068) and mouse total anti-EGFR antibodies. Phospho-EGFR signal was normalized to total EGFR expression for each sample. […] Normalized data was fitted using a sigmoidal curve analysis program (Graph Pad Prism version 5) with variable Hill slope to determine the EC50 values.
For orientation: Immunoblotting shows a protein as a band on a membrane.

The target of test [4] is pEGFR in H1975 cells (Homo sapiens (Human), UniProt P00533, L858R/T790M). Put plainly: Washout experiment in H1975 cells (pEGFR). It is filed as cell-based. The conditions noted are these: 500 nM for 1 hr; for pEGFR activity restored: 24 h after compound removal, by new protein synthesis; for inhibition at 0.5 µM: NCI-H1975. As for the experimental part: Washout Experiment in H1975 Cells Containing EGFR Deletion/T790M Mutation
Cells were plated in Growth Media supplemented with 10% FBS and 1% P/S at a density of 2.0×10^5 cells per well in 12 well tissue culture plates. Cells were allowed to settle down for 4 hrs and then maintained in low-serum (0.1% FBS) media overnight.
The following morning the media was removed and the cells were treated with 500 nM test compound in low-serum media for 1 hr. The cells were washed free of compound 2× with PBS (Invitrogen). One set of cells were immediately lysed as indicated above as the 0 hr time point. The remaining cells were incubated with complete RPMI-1640 growth media (10% FBS) for 1, 3, 6 and 24 hr. For the first 1 hr, cells were washed 2× with PBS every 30 min. DMSO (0.5%) controls were collected at the 0, 3, 6 and 24 hr time points.

Test [5] has as its system HCC827 cells (EGFR delE746-A750). As to the kind of experiment: Cell proliferation (CellTiter Glo, 72 hr) in HCC827 cells. The note with it: for GI50: Homo sapiens. Format: cell-based, human. As for the experimental part: as §1, §2
Test [6] deals with EGFR delE746-A750 deletion mutation (HCC827 cells) (Homo sapiens (Human), UniProt P00533, DEL746-750). Put plainly: Phospho-EGFR signaling (immunoblotting, 1 hr) in HCC827 cells. The note with it: signaling EC50 WT (A431) / HCC827. Format: cell-based. As for the experimental part:
as §1, §3, §4, §5, §6

Test [7] has as its target EGFR-WT (Homo sapiens (Human), UniProt P00533). Put plainly: Omnia assay, potency against EGFR (WT) active enzyme. The conditions noted are these: [EGFR-WT]=5 nM, [ATP]=15 uM, 30 min pre-incubation. Format: biochemical. The procedure: Kinase reactions were started with the addition of 45 μL of the ATP/Tyr-Sox peptide substrate mix and monitored every 71 seconds for 60 minutes at λex360/λem485 in a Synergy^4 plate reader from BioTek (Winooski, Vt.).

[8] abbreviates: A-431, A431 cells, 72 hr, read-out: WT EGFR GI50.
[9] abbreviates: A-431, Table 2, A431 cells express WT EGFR, read-out: Comparative GI50 Values, A431.
Where [10] appears, read: NCI-H1975, H1975 cells, 72 hr, read-out: H1975 GI50.
Where [11] appears, read: NCI-H1975, Table 2, H1975 express EGFR L858R/T790M, read-out: Comparative GI50 Values, H1975.
[12] abbreviates: 1 hr after compound removal, read-out: pEGFR phosphorylation inhibited.
[13] abbreviates: for at least 8 hours after compound was removed, read-out: pEGFR remained inhibited.
[14] abbreviates: HCC827 cells, 72 hr, read-out: HCC827 GI50.
Where [15] appears, read: Table 2, HCC827 express EGFR delE746-A750, read-out: Comparative GI50 Values, HCC827.

Molecules are shown by their SMILES. Like-named read-outs stand apart in the source and are kept apart here.

On to `C=CC(=O)Nc1cccc(Nc2nc(Nc3ccc(N4CCOCC4)cc3OC)ncc2C(F)(F)F)c1` [Compound I-2, N-(3-(2-(2-methoxy-4-morpholinophenylamino)-5-(trifluoromethyl)pyrimidin-4-ylamino)phenyl)acrylamide], for which the GI50 (usually the concentration that inhibits growth by half) in test [1] (setting [8]) is over 1000 nM; in test [1] (setting [9]), over 1000 nM; in test [2] (setting [10]) it was 10 to 100 nM; in test [2] (setting [11]) it was 10 to 100 nM; in test [5] (setting [14]), 10 to 100 nM; in test [5] (setting [15]), 10 to 100 nM. For the same compound, the “Ratio WT/mutant (H1975)” value in test [3] is given as over 50. Further, the pEGFR activity restored in test [4] is listed as 40-60%. The inhibition at 0.5 µM in test [4] (setting [12]) fell in the range of 80 to 100%; in test [4] (setting [13]) it was 60 to 90%.

On to `C=CC(=O)Nc1cccc(Nc2nc(Nc3ccc(N4CCN(S(C)(=O)=O)CC4)cc3OC)ncc2C(F)(F)F)c1` [Compound I-17, N-(3-(2-(2-methoxy-4-(4-(methylsulfonyl)piperazin-1-yl)phenylamino)-5-(trifluoromethyl)pyrimidin-4-ylamino)phenyl)acrylamide], for which the “Ratio WT/mutant (HCC827)” value in test [6] was over 5. The GI50 in test [1] (setting [8]) is over 1000 nM; in test [2] (setting [10]), 100 to 500 nM; in test [5] (setting [14]) it was 10 to 100 nM. The “Ratio WT/mutant (H1975)” value in test [3] is reported as over 30.

Take `C=CC(=O)Nc1cccc(Nc2nc(Nc3ccc(N4CCOCC4)cc3OC(F)F)ncc2C(F)(F)F)c1` [Compound I-14, N-(3-(2-(2-(difluoromethoxy)-4-morpholinophenylamino)-5-(trifluoromethyl)pyrimidin-4-ylamino)phenyl)acrylamide]: in test [6], the “Ratio WT/mutant (HCC827)” value was over 15. Moreover, the results for the GI50 in test [1] (setting [8]), in test [2] (setting [10]) and in test [5] (setting [14]) were over 1000 nM, 100 to 500 nM and 10 to 100 nM, respectively. Further, the “Ratio WT/mutant (H1975)” value in test [3] is over 15.

Regarding `C=CC(=O)Nc1cccc(Oc2nc(Nc3ccc(N4CCN(C(=O)OC(C)(C)C)CC4)cc3OC)ncc2Cl)c1` [Compound I-46, tert-butyl 4-(4-(4-(3-acrylamidophenoxy)-5-chloropyrimidin-2-ylamino)-3-methoxyphenyl)piperazine-1-carboxylate], the “Ratio WT/mutant (HCC827)” value in test [6] is reported as over 50. Also, the GI50 in test [1] (A-431, 72 h, read-out: WT EGFR GI50) was over 1000 nM; in test [2] (NCI-H1975, 72 h, read-out: H1975 GI50), 500 to 1000 nM; in test [5] (HCC827, 72 h, read-out: HCC827 GI50), 100 to 500 nM. The “Ratio WT/mutant (H1975)” value in test [3] was over 10.

Consider `C=CC(=O)Nc1cccc(Nc2nc(Nc3ccc(N4CCOCC4)cc3OC)ncc2Cl)c1` [Compound I-15, N-(3-(5-chloro-2-(2-methoxy-4-morpholinophenylamino)pyrimidin-4-ylamino)phenyl)acrylamide], for which the results for the GI50 in test [1] (setting [8]), in test [2] (setting [10]) and in test [5] (setting [14]) were over 1000 nM, 500 to 1000 nM and 100 to 500 nM, respectively. Moreover, in test [2] (proliferation GI50 WT (A431) / H1975), the “Ratio WT/mutant (H1975)” value is given as over 1. The IC50 (usually the concentration that inhibits the measured activity by half) in test [7] was in the range of 30 to 100 nM. In test [5] (proliferation GI50 WT (A431) / HCC827), the “Ratio WT/mutant (HCC827)” value is given as over 10.

Consider `C=CC(=O)Nc1cccc(Nc2nc(Nc3ccc(N4CCN(C(C)=O)CC4)cc3OC)ncc2C(F)(F)F)c1` [Compound I-4, N-(3-(2-(4-(4-acetylpiperazin-1-yl)-2-methoxyphenylamino)-5-(trifluoromethyl)pyrimidin-4-ylamino)phenyl)acrylamide], for which the GI50 was 500 to 1000 nM in test [1] (setting [8]); 500 to 1000 nM in test [1] (setting [9]); 10 to 100 nM in test [2] (setting [10]); 10 to 100 nM in test [2] (setting [11]); 10 to 100 nM in test [5] (setting [14]); 10 to 100 nM in test [5] (setting [15]). Moreover, in test [4], the pEGFR activity restored is recorded as 40-60%. In addition, the inhibition at 0.5 µM in test [4] (setting [12]) lay within 80 to 100%; in test [4] (setting [13]) it was 60 to 90%.
